Data set [1] can be described thus: Figure 5. The text has this: Table printed on a drawing sheet, Figure 5
The patent's description of the figure: FIG. 5 illustrates the PK profile in rat and monkey for a peptidomimetic macrocycle of the invention.
First reader's note: The first row combines the substance name (SP2) with the conditions dose, route and species in one cell.

A short description of data set [2]: circular dichroism. Further details: unit not given here. Particulars: 20 mM phosphoric acid; pH 2.0; 5 °C; 0.05 mg/mL. On the technique in general: Circular dichroism is widely used to follow secondary structure.
Data set [3] in a line: Figure 2. Particulars: for C0 / half-life / MRT: Sprague-Dawley, rat, plasma, iv; for MRT: read-out: MRTinf_obs. On the set-up: AUCall: concentration or dose not given beside the values. On the procedure: Table printed on a drawing sheet, Figure 2
Footnotes: 2 mg/mL iv bolus in Sprague-Dawley rats (10 mg/kg) / * 0.6 mg/mL iv bolus in Sprague-Dawley rats (3 mg/kg)
The patent's description of the figure: FIG. 2 lists the in vivo half-lives of peptidomimetic macrocycles of the invention. Half-lives were measured in Sprague Dawley rats after one intravenous bolus injection at 0.6 mg/mL or 2 mg/mL of each unlabeled peptidomimetic macrocycle at a 3 mg/kg or 10 mg/kg dose, respectively. Three animals were used per compound and concentrations were determined by mass-spectrometric analysis of blood levels (plasma).
First reader's note: An asterisk before the peptide name marks dosing at 3 mg/kg (0.6 mg/mL) instead of 10 mg/kg (2 mg/mL).

These results are taken from US9458202B2, “Peptidomimetic macrocycles with improved properties” (Aileron Therapeutics, Inc., priority 2008, dated 2016).

Where a SMILES comes first, the peptide text is derived from it. Bridges are numbered along the chain shown (N, C = ends). [ ]: non-standard residue; d: D form. S5 = C=CCCC[C@](C)(N)C(=O)O; Nle = CCCC[C@H](N)C(=O)O

As to `CC[C@H](C)[C@H](NC(C)=O)C(=O)N[C@@H](Cc1c[nH]c2ccccc12)C(=O)N[C@H](C(=O)N[C@@H](C)C(=O)N[C@@H](CCC(N)=O)C(=O)N[C@@H](CCC(=O)O)C(=O)N[C@@H](CC(C)C)C(=O)N[C@@H](CCCNC(=N)N)C(=O)N[C@@]1(C)CCCC=CCCC[C@@](C)(C(=O)N[C@@H](Cc2ccccc2)C(=O)N[C@@H](CC(N)=O)C(=O)N[C@@H](C)C(=O)N[C@@H](Cc2ccc(O)cc2)C(=O)N[C@@H](Cc2ccc(O)cc2)C(=O)N[C@@H](C)C(=O)N[C@@H](CCCNC(=N)N)C(=O)N[C@@H](CCCNC(=N)N)C(N)=O)NC(=O)[C@H](CC(=O)O)NC(=O)CNC(=O)[C@H]([C@@H](C)CC)NC1=O)[C@@H](C)CC` (single isomer, unassigned) [SP2 10 mg/kg IV rat], in data set [1], the “AUC all” value turned out to be 170.685 µg·h/mL; the Cmax (in general, the highest concentration seen after dosing) is 70.325 µg/mL; the “MRTinf” value is 3.1 h; the “T ½” value is 5.7 h.
For the compound `CCCC[C@H](NC(=O)[C@H](CO)NC(=O)[C@H](CC(=O)O)NC(=O)CNC(=O)[C@@H](NC(=O)[C@H](CCC(N)=O)NC(=O)[C@H](C)NC(=O)[C@H](CC(C)C)NC(=O)[C@H](Cc1c[nH]cn1)NC(=O)[C@H](CCCNC(=N)N)NC(=O)[C@H](C)NC(=O)[C@@H](NC(=O)[C@H](CC(N)=O)NC(=O)[C@H](CCCNC(=N)N)NC(=O)[C@@H](NC(=O)[C@@H](NC(=O)[C@H](CC(=O)O)NC(C)=O)[C@@H](C)CC)[C@@H](C)CC)[C@@H](C)CC)C(C)C)C(=O)N[C@@H](CC(=O)O)C(=O)N[C@@H](CCCNC(=N)N)C(=O)N[C@@H](CO)C(=O)N[C@H](C(N)=O)[C@@H](C)CC` [*SP11] (Ac-DIIRNIARHLAQVGDS[Nle]DRSI-NH2), the helicity in data set [2] was -1890. Further, in data set [3], the “AUCall” value amounted to 1.136 µg·h/mL, the “Cl_obs” value worked out at 2.732 L/h/kg, the C0 was 1.08 µg/mL and the half-life (usually the time in which the quantity being followed falls by half) was 1.3 h. In addition, the MRT in data set [3] came to 1.6 h.
For `CCCC[C@H](NC(=O)[C@]1(C)CCCC=CCCCC2(CCCC=CCCC[C@@](C)(NC(=O)[C@H](C)NC(=O)[C@@H](NC(=O)[C@H](CC(N)=O)NC(=O)[C@H](CCCNC(=N)N)NC(=O)[C@@H](NC(=O)[C@@H](NC(=O)[C@H](CC(=O)O)NC(C)=O)[C@@H](C)CC)[C@@H](C)CC)[C@@H](C)CC)C(=O)N[C@@H](Cc3c[nH]cn3)C(=O)N[C@@H](CC(C)C)C(=O)N[C@@H](C)C(=O)N2)C(=O)N[C@@H](C(C)C)C(=O)NCC(=O)N[C@@H](CC(=O)O)C(=O)N1)C(=O)N[C@@H](CC(=O)O)C(=O)N[C@@H](CCCNC(=N)N)C(=O)N[C@@H](CO)C(=O)N[C@H](C(N)=O)[C@@H](C)CC` (some centres unmarked) [*SP13], in data set [2], the helicity was -5450. Also, in data set [3], the “AUCall” value was 82.965 µg·h/mL, the “Cl_obs” value was found to be 0.0264 L/h/kg, the C0 worked out at 6.1 µg/mL and the half-life was 9.5 h. Also, the MRT in data set [3] worked out at 13.2 h.
In the case of `CCCC[C@H](NC(=O)[C@@]1(C)CCCC=CCCCC2(CCCC=CCCC[C@](C)(NC(=O)[C@H](C)NC(=O)[C@@H](NC(=O)[C@H](CC(N)=O)NC(=O)[C@H](CCCNC(=N)N)NC(=O)[C@@H](NC(=O)[C@@H](NC(=O)[C@H](CC(=O)O)NC(C)=O)[C@@H](C)CC)[C@@H](C)CC)[C@@H](C)CC)C(=O)N[C@@H](Cc3c[nH]cn3)C(=O)N[C@@H](CC(C)C)C(=O)N[C@@H](C)C(=O)N2)C(=O)N[C@@H](C(C)C)C(=O)NCC(=O)N[C@@H](CC(=O)O)C(=O)N1)C(=O)N[C@@H](CC(=O)O)C(=O)N[C@@H](CCCNC(=N)N)C(=O)N[C@@H](CO)C(=O)N[C@H](C(N)=O)[C@@H](C)CC` (some centres unmarked) [*SP14], in data set [2], the helicity is -5840. Besides, in data set [3], the “AUCall” value was found to be 74.344 µg·h/mL, the “Cl_obs” value was found to be 0.0436 L/h/kg, the C0 is 7.2 µg/mL and the half-life was 6.7 h. For the same compound, the MRT in data set [3] came to 8.7 h.
Consider `CC[C@H](C)[C@H](NC(C)=O)C(=O)N[C@@H](Cc1c[nH]c2ccccc12)C(=O)N[C@H](C(=O)N[C@@H](C)C(=O)N[C@@H](CCC(N)=O)C(=O)N[C@@H](C)C(=O)N[C@@H](CC(C)C)C(=O)N[C@@H](CCCNC(=N)N)C(=O)N[C@@H](CCCNC(=N)N)C(=O)N[C@H](C(=O)NCC(=O)N[C@@H](CC(=O)O)C(=O)N[C@@H](CCC(=O)O)C(=O)N[C@@H](Cc1ccccc1)C(=O)N[C@@H](CC(N)=O)C(=O)N[C@@H](C)C(=O)N[C@@H](Cc1ccc(O)cc1)C(=O)N[C@@H](Cc1ccc(O)cc1)C(=O)N[C@@H](C)C(=O)N[C@@H](CCCNC(=N)N)C(=O)N[C@@H](CCCNC(=N)N)C(N)=O)[C@@H](C)CC)[C@@H](C)CC` [*SP15], for which, in data set [2], the helicity is -2000. In data set [3], the “AUCall” value is 8.43 µg·h/mL, the “Cl_obs” value was 0.448 L/h/kg, the C0 amounted to 48.1 µg/mL and the half-life was 0.4 h. For the same compound, in data set [3], the MRT turned out to be 0.2 h.
Consider `CC[C@H](C)[C@H](NC(C)=O)C(=O)N[C@@]1(C)CCCC=CCCC[C@@](C)(C(=O)N[C@@H](CC(C)C)C(=O)N[C@@H](CCCNC(=N)N)C(=O)N[C@@]2(C)CCCC=CCCC[C@@](C)(C(=O)N[C@@H](Cc3ccccc3)C(=O)N[C@@H](CC(N)=O)C(=O)N[C@@H](C)C(=O)N[C@@H](Cc3ccc(O)cc3)C(=O)N[C@@H](Cc3ccc(O)cc3)C(=O)N[C@@H](C)C(=O)N[C@@H](CCCNC(=N)N)C(=O)N[C@@H](CCCNC(=N)N)C(N)=O)NC(=O)[C@H](CC(=O)O)NC(=O)CNC(=O)[C@H]([C@@H](C)CC)NC2=O)NC(=O)[C@H](CCC(N)=O)NC(=O)[C@H](C)NC(=O)[C@H]([C@@H](C)CC)NC1=O` [*SP16], for which the helicity in data set [2] is -14400. In data set [3], the “AUCall” value was 125.889 µg·h/mL, the “Cl_obs” value turned out to be 0.024 L/h/kg, the C0 was found to be 22.9 µg/mL and the half-life was 4.5 h. Besides, in data set [3], the MRT was 4.4 h.
With `CC(=O)N[C@@H](CCC(N)=O)C(=O)N[C@@H](CO)C(=O)N[C@@]1(C)CCCC=CCCCC2(CCCC=CCCCCCC[C@@](C)(C(=O)N[C@@H](CCC(N)=O)C(=O)N[C@@H](CC(N)=O)C(N)=O)NC(=O)[C@H](CC(C)C)NC(=O)[C@H](CC(C)C)NC(=O)[C@H](CCCNC(=N)N)NC(=O)[C@H](Cc3c[nH]c4ccccc34)NC(=O)[C@H](CC(C)C)NC(=O)[C@H](CC(N)=O)NC2=O)NC(=O)[C@H](Cc2ccccc2)NC(=O)[C@H]([C@@H](C)O)NC(=O)[C@H](CCC(N)=O)NC1=O` (some centres unmarked) [*SP17], the helicity in data set [2] was -12300. In data set [3], the “AUCall” value came out at 102.958 µg·h/mL, the “Cl_obs” value turned out to be 0.0597 L/h/kg, the C0 was 72.8 µg/mL and the half-life was 3.3 h. The MRT in data set [3] was 3 h.
On to `CC[C@H](C)[C@H](NC(C)=O)C(=O)N[C@@H](Cc1c[nH]c2ccccc12)C(=O)N[C@H](C(=O)N[C@@H](C)C(=O)N[C@]1(C)CCCC=CCCCC2(CCCC=CCCC[C@@](C)(C(=O)N[C@@H](Cc3ccccc3)C(=O)N[C@@H](CC(N)=O)C(=O)N[C@@H](C)C(=O)N[C@@H](Cc3ccc(O)cc3)C(=O)N[C@@H](Cc3ccc(O)cc3)C(=O)N[C@@H](C)C(=O)N[C@@H](CCCNC(=N)N)C(=O)N[C@@H](CCCNC(=N)N)C(N)=O)NC(=O)[C@H](CC(=O)O)NC(=O)CNC(=O)[C@H]([C@@H](C)CC)NC2=O)NC(=O)[C@H](CCCNC(=N)N)NC(=O)[C@H](CC(C)C)NC(=O)[C@H](C)NC1=O)[C@@H](C)CC` (some centres unmarked) [*SP20], for which the helicity in data set [2] is -19200. Moreover, in data set [3], the “AUCall” value is 15 µg·h/mL, the “Cl_obs” value came out at 0.181 L/h/kg, the C0 amounted to 1.95 µg/mL and the half-life was 10.8 h. The MRT in data set [3] was 14.1 h.
For the compound `CC[C@H](C)[C@H](NC(C)=O)C(=O)N[C@@H](Cc1c[nH]c2ccccc12)C(=O)N[C@H](C(=O)N[C@@H](C)C(=O)N[C@@]1(C)CCCC=CCCCC2(CCCC=CCCCCCC[C@@](C)(C(=O)N[C@@H](Cc3ccc(O)cc3)C(=O)N[C@@H](Cc3ccc(O)cc3)C(=O)N[C@@H](C)C(=O)N[C@@H](CCCNC(=N)N)C(=O)N[C@@H](CCCNC(=N)N)C(N)=O)NC(=O)[C@H](CC(N)=O)NC(=O)[C@H](Cc3ccccc3)NC(=O)[C@H](CCC(=O)O)NC(=O)[C@H](CC(=O)O)NC(=O)CNC(=O)[C@H]([C@@H](C)CC)NC2=O)NC(=O)[C@H](CCCNC(=N)N)NC(=O)[C@H](CC(C)C)NC(=O)[C@H](C)NC1=O)[C@@H](C)CC` (some centres unmarked) [*SP21], the helicity in data set [2] was -11200. In data set [3], the “AUCall” value stood at 7 µg·h/mL, the “Cl_obs” value worked out at 0.4186 L/h/kg, the C0 stood at 1.45 µg/mL and the half-life is 5.7 h. Also, the MRT in data set [3] was found to be 6.6 h.
On to `CCCC[C@H](NC(=O)[C@]1(C)CCCC=CCCC[C@](C)(NC(=O)[C@H](C)NC(=O)[C@H](CC(C)C)NC(=O)[C@H](Cc2c[nH]cn2)NC(=O)[C@H](CCCNC(=N)N)NC(=O)[C@H](C)NC(=O)[C@@H](NC(=O)[C@H](CC(N)=O)NC(=O)[C@H](CCCNC(=N)N)NC(=O)[C@@H](NC(=O)[C@@H](NC(=O)[C@H](CC(=O)O)NC(C)=O)[C@@H](C)CC)[C@@H](C)CC)[C@@H](C)CC)C(=O)N[C@@H](C(C)C)C(=O)NCC(=O)N[C@@H](CC(=O)O)C(=O)N1)C(=O)N[C@@H](CC(=O)O)C(=O)N[C@@H](CCCNC(=N)N)C(=O)N[C@@H](CO)C(=O)N[C@H](C(N)=O)[C@@H](C)CC` [SP1] (Ac-DIIRNIARHLA[S5]VGD[S5][Nle]DRSI-NH2; staple 12-16), for which the helicity in data set [2] is -8150. In addition, in data set [3], the “AUCall” value was found to be 268.275 µg·h/mL, the “Cl_obs” value was determined as 0.0442 L/h/kg and the C0 was found to be 154 µg/mL.
